These results are taken from patent US5760092A, “Allocolchinones and uses thereof” (Brandeis University, priority 1996, dated 1998).

One assay concerns tubulin. Briefly: Binding to tubulin.
The subject of assay [1] is HOP-92 non-small cell lung cancer cells. Briefly: cells. Particulars: Homo sapiens.

For the compound `COc1cc2c(c(OC)c1OC)-c1ccc(C(C)=O)cc1C(NC(C)=O)CC2` (stereo not drawn), the binding to tubulin result in the assay with tubulin is listed as “reversible”. In assay [1] (HOP-92), this compound had a concentration for 50% growth inhibition (GI50) of 0.618 nM. For the same compound, in assay [1] (HOP-92, read-out: Percent Growth, log10 conc -4.0), the activity at 100 µM worked out at 57%. Moreover, the activity at 10 µM in assay [1] (HOP-92, read-out: Percent Growth, log10 conc -5.0) was determined as 53%. In addition, in assay [1] (HOP-92, read-out: Percent Growth, log10 conc -9.0), the activity at 0.001 µM was determined as 36%. The activity at 0.0001 µM in assay [1] (HOP-92, read-out: Percent Growth, log10 conc -10.0) is 94%.

By GI50 is commonly meant the concentration that inhibits growth by half.
